Measurements reported in ChEMBL document CHEMBL1777691, “Structure based design of novel inhibitors for histidinol dehydrogenase from Geotrichum candidum” (Bioorg Med Chem Lett, 2010).
pIC50: −log10 of the molar value.

test: Inhibition of Geotrichum candidum Histidinol dehydrogenase

SMILES	pIC50
COC(=O)C1Cc2c(Cl)ncn2C(=O)N1 (stereo not drawn)	3.91
CCOC(=O)NC(Cc1cn(C)cn1)C(=O)OC (stereo not drawn)	4.53
O=C(O)CCc1c[nH]cn1	5.50
O=C(O)C1Cc2c(I)nc(I)n2C(=O)N1 (stereo not drawn)	4.23
O=C1NCCc2cncn21	4.62
COC(=O)NC(Cc1cncn1C)C(=O)OC (stereo not drawn)	4.97
O=C(O)C1Cc2cncn2C(=O)N1 (stereo not drawn)	5.45
COC(=O)CCc1c[nH]cn1	5.28
